The results in this text go back to US20140315781A1, “METHODS OF TREATING FATTY LIVER DISEASE WITH HELMINTH-DERIVED GLYCAN-CONTAINING COMPOUNDS” (priority 2011, published 2014).

The subject of series [1] is primary mouse hepatocytes.
For series [2], the system named is human FXRα promoter 1 (FXRα1/α2). The series is described as follows: Luciferase reporter assay, FXRα promoter 1, in HepG2 cells. Format: cell-based. The following applies: with or without LNnT, p<0.05, FIG. 4b. The protocol:
HepG2 cells, obtained from ATCC (#HB-8065), were cultured in Eagle's minimal essential media supplemented with non-essential amino acids, L-glutamine, sodium pyruvate, sodium bicarbonate, 10% fetal bovine serum, and antibiotics.
(§1) The upstream promoter 1 and downstream promoter 2 regions of the human FXRα gene were cloned into the pGL3-basic luciferase reporter construct and transfected into HepG2 cells in a 96-well format or primary hepatocytes in a 24-well format using a luciferase system (Promega). A β-galactosidase reporter construct was used as a transfection control. Promoters 1 and 2 of the human FXRα gene were PCR amplified and cloned into the pGL3-basic luciferase reporter (Promega). Point mutations were introduced using the site-directed mutagenesis kit (Stratagene).
Both human and mouse FXRα contain two major promoters (FIG. 2c). […] To examine the signalling pathways through which LNFPIII regulates FXRα activity, the activities of luciferase reporters driven by upstream (promoter 1) or downstream (promoter 2) regulatory regions were examined in HepG2 cells (human hepatoma cells). Reporters driven by a 2 kb fragment of human FXRα promoter 1 or a 0.13 kb fragment of human FXRα promoter 2 were transfected into HepG2 cells. Twenty-four hours after transfection, cells were treated with or without LNFPIII (20 μg/ml) or SEA (2 μg/ml) for an additional 24 hours.
(In general: A reporter such as luciferase makes a cellular process visible.)

The test system of series [3] is primary mouse hepatocytes. The following applies: PD98059 1 hour prior to overnight LNFPIII, FIG. 3i.
For series [4], the system named is human FXRα promoter 2 (FXRα3/α4). The series is described as follows: Luciferase reporter assay, FXRα promoter 2, in HepG2 cells. Format: cell-based.
From the text: as §1
To examine the signalling pathways through which LNFPIII regulates FXRα activity, the activities of luciferase reporters driven by upstream (promoter 1) or downstream (promoter 2) regulatory regions were examined in HepG2 cells (human hepatoma cells). Reporters driven by a 2 kb fragment of human FXRα promoter 1 or a 0.13 kb fragment of human FXRα promoter 2 were transfected into HepG2 cells. Twenty-four hours after transfection, cells were treated with or without LNFPIII (20 μg/ml) or SEA (2 μg/ml) for an additional 24 hours.
To gain insight into the region of promoter 2 responsible for promoter activation, the minimal LNFPIII responsive region was determined through a series of promoter deletion mutants.

The test system of series [5] is Erk. Briefly: Immunoblot of phospho-Erk in primary hepatocytes. Format: cell-based, mouse. The following applies: PD98059 1 hour prior to overnight LNFPIII, FIG. 3g. The protocol: FIG. 3G (left panel) is an immunoblot for levels of phospho-Erk (p-Erk) and total Erk (t-Erk) in primary hepatocytes treated with vehicle, LNFPIII, PD90859, or LNFPIII+PD98059. Cells were pretreated with PD98059 for 1 hour prior to overnight LNFPIII treatment. Actin levels served as a loading control. FIG. 3G (right panel) is a bar graph depicting the densitometric analysis of the immunoblot from FIG. 3G (left panel). Results are presented as mean±SEM.
FIG. 3H is an immunoblot for levels of p-Erk and t-Erk in primary hepatocytes treated with vehicle, SEA, or SEA+PD98059. Cells were pretreated with PD98059 for 1 hour prior to overnight SEA treatment. Actin levels served as a loading control.
(§2) For Western blot analyses, tissue and cell lysates were prepared in lysis buffer (20 mM Tris-HCl, 100 mM NaCl, 1 mM EDTA, NP-40, glycerol, PMSF, and DTT) in the presence of protease and phosphatase inhibitors. The four FXRα (NR1H4) isoforms were based on previous reports, which were originally designated as FXRα1/α2 and FXRβ1/β2 (Huber et al., Gene 2002; 290:35-43; Zhang et al., JBC 2003; 278:104-10). The latter were renamed FXRα3/α4 to avoid confusion with rodent FXRβ (NR1H5) (Lefebvre et al., Physiol Rev 2009; 89:147-91).
For orientation: Immunoblotting shows a protein as a band on a membrane.

A further series deals with livers of mice. The following applies: mouse, in vivo.
Series [6] has as its system Male C57BL/6J mice on a high-fat, high carbohydrate diet. Briefly: High fat diet-induced steatosis and liver function in mice (histology, liver triglycerides, circulating AST/ALT). Type of series: in vivo. The following applies: vs vehicle. The protocol:
(§3) Male C57BL/6J mice (8-10 weeks of age) were placed on a high-fat, high carbohydrate diet (F3282, Bio-Serv) for the duration for the experiments. After 6 weeks of the special diet, mice were intraperitoneally injected 2 times per week with 25 μg of dextran (vehicle) or 25 μg of LNFPIII conjugated with dextran (LNFPIII-dex). A second cohort was treated with 0.9% NaCl or SEA dissolved in 0.9% NaCl (25 μg/mouse/twice a week). Metabolic studies started 4 weeks after LNFPIII or SEA treatment and were conducted after 6 hrs of fasting. Animals were sacrificed at the 6th week of treatment for serum and tissue collection. Most experiments were repeated in two cohorts (n=4-7/treatment). Body weight and food intake were monitored weekly.
Circulating levels of ALT and AST, markers of overall liver function, were measured using commercial kits as described in Liu et al. (JBC 2011; 286:1237-47).
The Dana Farber/Harvard Cancer Center Research Pathology Cores provided all histological services and preliminary assessments by a pathologist. Briefly, tissues were collected from animals and fixed in 10% formalin (liver) for 48 hours. Fixed samples were rinsed in PBS and sent to the histology core to be paraffin embedded, sectioned, and stained with hematoxylin and eosin according to standard procedures. A staff pathologist analyzed the samples for signs of inflammation, fatty liver, fibrosis, and other pathologies associated with the liver.
In this example, the ability of LNFPIII or SEA to prevent high fat diet-induced steatosis and preserve liver function was examined. Mice were injected with either vehicle (dextran, 25 μg), LNFPIII conjugated to dextran (25 μg), or SEA twice a week (n=5 for each group) as described in the Methods section.
To determine whether overall liver function was affected by LNFPIII treatment, circulating levels of AST and ALT were also examined.

Series [7] relates to Erk. Briefly: Immunoblot of phospho-Erk in liver lysates of treated mice. Format: in vivo. The following applies: FIG. 3f. The protocol:
FIG. 3F (top panel) is an immunoblot for levels of phosphor-Erk (p-Erk) and total Erk (t-Erk) in liver lysates prepared from vehicle or LNFPIII treated mice (n=5, showing representative 3 samples/treatment). Actin levels served as a loading control. FIG. 3F (bottom panel) is a bar graph depicting the densitometric analysis of the immunoblot from FIG. 3F (top panel). Results are presented as mean±SEM. *p<0.05.
as §2

A further series has as its system FXRα−/− mice. Briefly: LNFPIII treatment of FXRα−/− mice (liver mRNA, hepatic triglyceride, serum AST/ALT). Type of series: in vivo.
From the text: Male C57BL/6J mice (8-10 weeks of age) were purchased from The Jackson Laboratory (Bar Harbor, Me.). FXR α−/− mice (both in the C57BL/6J background) were obtained from The Jackson Laboratory. All animal studies were approved by the Harvard Medical Area Standing Committee on Animals.
as §3
Furthermore, to determine whether FXRα mediated the effects of LNFPIII on lipogenesis and fatty acid oxidation, primary hepatocytes were isolated from wild type or FXRα^−/− mice, cultured, and tested for de novo lipogenesis and fatty acid oxidation.

Where [8] appears, read: high fat diet mice, p<0.05, FIG. 1d/1e.
Setting [9] is: FIG. 2d, primary hepatocytes treated for 24 hours.
Setting [10] is: FIG. 2d, primary hepatocytes treated for 24 hours, p<0.05.

Regarding `CC(=O)N[C@H]1[C@H](O[C@H]2[C@@H](O)[C@@H](CO)O[C@@H](O[C@H]3[C@H](O)[C@@H](O)C(O)O[C@@H]3CO)[C@@H]2O)O[C@H](CO)[C@@H](O[C@@H]2O[C@H](CO)[C@H](O)[C@H](O)[C@H]2O)[C@@H]1O` (mixture of isomers) [LNnT, lacto-N-neotetraose], in series [1], the “lipogenesis in cultured primary hepatocytes” value is given as “blocked lipogenesis in cultured primary hepatocytes in a dose-dependent manner”. Also, the “activity of the FXRα1/α2 promoter in a luciferase assay” value in series [2] was “significantly increased”.
As to `COc1cccc(-c2cc(=O)c3ccccc3o2)c1N` [PD98059, reference compound], the “ability of LNFPIII to increase β-oxidation in presence of PD98059” value in [3] is “completely abolished”. The “responsiveness of the FXRα promoter 2 to LNFPIII in presence of PD98059” value in series [4] was “completely abolished”. Moreover, the “ability of LNFPIII to suppress lipid synthesis in presence of PD98059” value in series [1] is recorded as “completely abolished”. For the same molecule, the “activation of Erk in response to LNFPIII in presence of PD98059” value in the series with Erk [5] is reported as “completely abolished”.
For lacto-N-fucopentaose III [LNFPIII], in the series on livers of mice, the “ACC1/2 mRNA in livers” value is on record as “significantly reduced”, the “Arg1 (M2 marker) mRNA in liver tissue” value is reported as “significantly higher levels”, the “F4/80 mRNA in liver tissue” value was “significantly lower levels” and the “FAS mRNA in livers” value is “significantly reduced”. In the series with livers of mice, the “IL-1β mRNA in liver tissue” value was “unchanged”, the “IL-6 mRNA in liver tissue” value was “significantly lower levels”, the “Mgl1 (M2 marker) mRNA in liver tissue” value is recorded as “significantly higher levels” and the “SCD1 mRNA in livers” value was “significantly reduced”. Moreover, in the series on livers of mice, the “SREBP-1c mRNA in livers” value is reported as “significantly reduced” and the “β-oxidation gene expression in livers” value was “did not affect”. In series [3], the “ability of LNFPIII to increase β-oxidation in presence of PD98059” value was “dependent on Erk activity and FXRα”. Further, the “high fat diet-induced hepatic lipid accumulation (histology)” value in series [6] (25 μg i.p. twice a week, 6 weeks, FIG. 1a) is given as “less high fat diet-induced hepatic lipid accumulation”. Also, in series [6] (25 μg twice a week, p<0.05, FIG. 1b), the “levels of triglycerides in livers” value is on record as “significantly lower levels”. Besides, in series [6] (setting [8]), the “circulating levels of ALT” value is given as “significantly reduced levels” and the “circulating levels of AST” value is “significantly reduced levels”. Further, in series [4] (HepG2, site-directed mutagenesis, FIG. 3d, 3e), the “activation of FXRα promoter 2 reporter with mutated overlapping AP-1 sites (site 3)” value is on record as “two overlapping AP-1 sites were required for the activation”. Also, the “Erk phosphorylation in liver” value with Erk [7] is on record as “increased”. Further, in series [1], the “ability of LNFPIII to suppress lipid synthesis in presence of PD98059” value was “dependent on Erk activity and FXRα”. Besides, in series [1] (20 μg/ml, 24 hours), the “lipogenesis in primary hepatocytes” value is given as “significantly suppressed”. For the same molecule, in the series on FXRα−/− mice (FIG. 2i, p<0.05), the “reduction in serum ALT concentration, wild type vs FXR−/− mice” value is “required FXRα expression” and the “reduction in serum AST concentration, wild type vs FXR−/− mice” value is given as “required FXRα expression”. Besides, the “reduction in hepatic triglyceride content, wild type vs FXR−/− mice” value with FXRα−/− mice (FIG. 2h, p<0.05) is “required FXRα expression”. In the series with FXRα−/− mice (livers, FIG. 2f), the “Acc1 mRNA expression in FXRα−/− mice” value was “did not reduce”, the “Acc2 mRNA expression in FXRα−/− mice” value is given as “did not reduce”, the “Fas mRNA expression in FXRα−/− mice” value is recorded as “did not reduce” and the “Scd1 mRNA expression in FXRα−/− mice” value is “did not reduce”. Further, in the series on FXRα−/− mice (livers, FIG. 2f), the “Srebp mRNA expression in FXRα−/− mice” value is “did not reduce”. In addition, the “β-oxidation gene expression in primary hepatocytes” value in the series with primary hepatocytes was “did not affect”. Further, in the series on primary hepatocytes (setting [9]), the “FXRα1/α2 mRNA expression” value is on record as “remained unchanged” and the “LXRα mRNA expression” value was “remained unchanged”. In addition, in the series on primary hepatocytes (setting [10]), the BSEP transcripts result is listed as “significantly upregulated”, the OATP transcripts result is reported as “significantly upregulated”, the PLTP transcripts entry was “significantly upregulated” and the SHP transcripts entry was “significantly upregulated”. Besides, in the series on primary hepatocytes (FIG. 2d, primary hepatocytes treated for 24 hours, vs vehicle, p<0.05), the FXRα3/α4 transcripts result is given as “significantly upregulated”.
